Source: patent publication US20220347125A1, “ANTITUMOR AGENT AND COMPOUNDING AGENT” (Keio University, priority 2019, published 2022)
d = 2'-deoxy (DNA); r = 2'-OH (RNA)

Assays:
[1] = test system: sulfasalazine-resistant tumor cells (HCT116 and HSC-4); assay: Intracellular HNE accumulation, SSZ or BSO with OXY (Experimental Example 13); format: cell-based; settings: SSZ, BSO or OXY alone, or SSZ or BSO in combination with OXY
Procedure: (§1) As in Experimental Example 1, HSC-4 cells were cultured in a medium containing 50 μM dyclonine or an equal volume of DMSO and 0 μM (not added) or 400 μM sulfasalazine, and the treated cells were fixed with 4% PFA-PBS. Then, the cells were permeabilized with 0.2% Triton X100-PBS, followed by blocking with 3% BSA-PBS. Subsequently, fluorescent staining was performed using an anti-HNE antibody as the primary antibody and AlexaFluor 488-conjugated anti-mouse IgG antibody as the secondary antibody. As a positive control, cells incubated with 50 μM HNE for 30 min were used and stained using antibodies in a similar manner.
In this experimental example, sulfasalazine-resistant tumor cells (HCT116 and HSC-4) were used, and the cells were treated as in Experimental Example 6 and then observed under a fluorescence microscope.

[2] = test system: SSZ-resistant tumor cells (HCT116 and HSC-4); assay: Intracellular GSH levels, GSH-Glo Glutathione Assay (Experimental Example 12); format: cell-based; settings: BSO or OXY alone, or SSZ with OXY, after 48 hours
Procedure: SSZ-resistant tumor cells (HCT116 and HSC-4) were used and the cells were treated in a similar manner to that in Example 11, and the intracellular GSH levels were measured after 48 hours using a GSH-Glo Glutathione Assay Kit (Promega).

[3] = test system: A549, HCT116 and HSC4; assay: Cell viability, oxyfedrine with SSZ or BSO, statements for all three lines (Experimental Example 11); settings: 48 hours; for effect on cell survival rate: 400 μM sulfasalazine alone or 100 μM L-buthionine sulfoximine alone
Procedure: Alveolar basal epithelial adenocarcinoma cell line A549, colon adenocarcinoma cell line HCT116, and oral squamous carcinoma cell line HSC-4, all of which are resistant to sulfasalazine or L-buthionine-sulfoximine, were seeded in 96-well plates at 4000 cells/well, and the culture was started. RPMI was used for the A549 and DMEM was used for the HCT116 and HSC-4 as culture media. After 24 hours, each medium was replaced with a medium containing 50 or 100 μM oxyfedrine or an equal volume of DMSO, and 0 (no sulfasalazine and no L-buthionine sulfoximine) or 400 μM sulfasalazine or 100 μM L-buthionine sulfoximine, and the culture was continued for 48 hours. Then, the cells were assayed for cell viability using CellTiter-Glo (Promega), and a cell survival rate in each case was calculated taking the number of live cells in the control (DMSO added, and sulfasalazine and L-buthionine sulfoximine not added) as 100%.

[4] = test system: ALDH; assay: ALDH activity, ALDEFLUOR Kit with FACS in HSC-4 cells (Experimental Example 5); format: cell-based; settings: 50 μM dyclonine 24 hours, or DEAB, DMSO-treated cells approximately 25%
Procedure: HSC-4 cells, a sulfasalazine-resistant oral squamous carcinoma cell line, were seeded at 8×10^5 cells/dish in 10-cm cell culture dishes, and culture was started. DMEM was used as the culture medium. After 24 hours, the medium was replaced with a medium containing 50 μM dyclonine (solvent: DMSO), and the cells were cultured for another 24 hours. The cells were then collected, stained with the ALDEFLUOR Kit (STEMCELL Technologies) for ALDH activity in the presence of N,N-diethylaminobenzaldehyde (DEAB), and analyzed by FACS (“Dyclonine” in the figure). As a control, experimental results are shown for cells cultured in the absence of DEAB which were not stained with the ALDEFLUOR Kit (“Unstained” in the figure), and cells that were stained with the ALDEFLUOR Kit after replacing the medium with an equal volume of medium with DMSO and without dyclonine (“Non-treatment” in the figure). For the positive cell counts, a gate was set to gate out positive cells to almost 0% in the DMSO-treated sample stained with the ALDEFLUOR Kit in the presence of DEAB (“DEAB” in the figure), and the positive rate in each case was calculated.

[5] = test system: A549 cells; assay: Cell viability, Nrf2 siRNA or ML385 with OXY and SSZ or BSO (Experimental Example 18); format: cell-based; settings: in addition to 400 μM SSZ and 50 μM OXY, 48 hours
Procedure: A549 cells were transfected with siRNA against the Nrf2 gene as in Example 17, or the medium was supplemented with ML385 that is an Nrf2 inhibitor. Cells were cultured for 48 hours in a medium containing 50 μM OXY, and 400 μM SSZ or 100 μM BSO, as in Example 11. Then, the cells were assayed for cell viability. As a control, the experiments were performed in a medium without any of the above. DMSO, however, was added appropriately to add a constant volume of DMSO in all cases.

[6] = test system: HSC-4 cells; assay: Intracellular HNE accumulation, anti-HNE fluorescent staining (Experimental Example 6); format: cell-based; settings: 50 μM dyclonine and/or 400 μM sulfasalazine
Procedure: as §1

[7] = test system: HSC-4 cells; assay: Dyclonine sensitivity after xCT knockdown, cell viability (Experimental Example 2); format: cell-based; settings: 48 hours
Procedure: HSC-4 cells, a sulfasalazine-resistant oral squamous carcinoma cell line, were seeded in a 96-well plate at 3000 cells/well, and nonsilencing control (scrambled (Sense: UUCUCCGAACGUGUCACGUtt (SEQ ID NO. 1), Antisense: ACGUGACACGUUCGGAGAAtt (SEQ ID NO. 2))) and siRNA or xCT specific siRNA (xCT siRNA #1 Sense: AGAAAUCUGGAGGUCAUUAtt (SEQ ID NO. 3), Antisense: […] (SEQ ID NO. 4), xCT siRNA #2 Sense: CCAGAACAUUACAAAUAAUtt (SEQ ID NO. 5), Antisense: AUUAUUUGUAAUGUUCUGGtt (SEQ ID NO. 6)) were lipofected using Lipofectamine RNAiMAX (Thermo Fisher Scientific), and culture was started. DMEM was used as the culture medium. After 24 hours, the medium was replaced with a medium containing 50 μM dyclonine (solvent: DMSO) or an equal volume of DMSO, and the culture was continued for 48 hours.

[8] = test system: HSC-4, a sulfasalazine-resistant oral squamous carcinoma cell line; assay: Cell viability (CellTiter-Glo), sulfasalazine and dyclonine (Experimental Example 1); format: cell-based; settings: 48 hours
Procedure: HSC-4, a sulfasalazine-resistant oral squamous carcinoma cell line, was seeded in a 96-well plate at 2000 cells/well, and culture was started. DMEM was used as the culture medium. After 24 hours, the medium was replaced with a medium containing 50 μM dyclonine or an equal volume of DMSO, as well as 0 (not added), 50, 100, 200, or 400 μM sulfasalazine, and the culture was continued for 48 hours.

[9] = test system: sulfasalazine-resistant, oral squamous carcinoma cell line HSC-2; assay: In vivo tumor weight, X-irradiation and oxyfedrine (Experimental Example 19); design: species or system nude mice; settings: oxyfedrine 20-30 mg/kg intraperitoneally Days 1-7, versus non-treated group
Procedure: The mice were injected intraperitoneally with oxyfedrine (OXY) (20 mg/kg) for 3 consecutive days (Days 1-3) immediately after transplantation. On Day4, oxyfedrine (30 mg/kg) was intraperitoneally administered, and X-rays (4, 6, or 10 Gy) were irradiated to the nude mice 2 hours later. Then, after intraperitoneal administration of oxyfedrine (20 mg/kg) for 3 days (Days 5-7), tumors were collected on Day 7 and weighed. The results are shown in a bar graph in FIG. 21. The groups of nude mice on which transplantation was performed in the same way, to which oxyfedrine was administered in the same way without X-irradiation, and to which no oxyfedrine was administered with X-irradiation in the same way, were used as controls. For statistical treatment, Student's 1-test was performed between the oxyfedrine and non-treated groups for each X-ray dose, and p value of less than 0.05 was considered significant.

[10] = test system: SSZ-resistant tumor cells (HCT116 and HSC-4); assay: Cell survival rate after ionizing radiation in the presence of OXY (Experimental Example 16); format: cell-based; settings: irradiated at 4, 6 or 10 Gy in the presence of 50 μM OXY, after 24 hours; versus irradiation or OXY alone
Procedure: (§2) In this experimental example, SSZ-resistant tumor cells (HCT116 and HSC-4) were irradiated with ionizing radiation at a dose of 4, 6, or 10 Gy using an X-ray irradiation system (Hitachi MBR-1520R-4, settings: 150 kV, 20 mA) in the presence of 50 μM oxyfedrine (OXY). In parallel, samples without OXY and ionizing radiation (0 Gy) were processed as a control. After 24 hours, cell survival rate was calculated as in Experimental Example 1. In addition, intracellular HNE was visualized as in Experimental Example 6.

[11] = test system: SSZ-resistant tumor cells (HCT116 and HSC-4); assay: Intracellular HNE after ionizing radiation in the presence of OXY (Experimental Example 16); format: cell-based; settings: irradiation and 50 μM OXY treatment in combination
Procedure: as §2

[12] = test system: A549 cells; assay: Western blotting after Nrf2 siRNA lipofection (Experimental Example 17); format: cell-based; settings: 48 hours after lipofection
Procedure: Nrf2, xCT, and β-actin expressions were detected in the extracts of SSZ-resistant tumor cells (HCT116, HSC-4, and A549) via Western blotting with primary antibodies against Nrf2, xCT, and β-actin and HRP-conjugated secondary antibody. Chemiluminescence Reagent Plus (Perkin-Elmer Japan) was used for detection.
Next, siRNA against the Nrf2 gene was lipofected into A549 cells to suppress the Nrf2 gene expression. The extracts of the lipofected A549 cells were prepared after 48 hours and the expressions of Nrf2, xCT, ALDH3A1, and β-actin were examined via Western blotting in the same way as above. The following sequences (bases shown in lower case are DNA overhangs) were used as siRNA.

CCCCS(=N)(=O)CC[C@H](N)C(=O)O (stereo partly drawn) [BSO, L-buthionine-sulfoximine]
intracellular HNE levels and frequency [1]: increased intracellular HNE levels were observed at a low frequency | intracellular GSH levels [2]: reduced | effect on cell survival rate [3]: little effect

CCN(CC)c1ccc(C=O)cc1 [DEAB, N,N-diethylaminobenzaldehyde]
cell population with high ALDH activity [4]: approximately 1%

Cc1ccccc1C(=O)N1CCc2cc(-c3nc(NC(=O)Cc4ccc5c(c4)OCO5)sc3C)ccc21 [ML385]
cell survival rate [5]: effectively reduced

CCCCOc1ccc(C(=O)CCN2CCCCC2)cc1 [dyclonine]
intracellular HNE level and frequency [6]: an increase in intracellular HNE level was observed at a low frequency | cell population with high ALDH activity [4]: approximately 1% | HSC-4 cell survival rate ([7]; 50 μM dyclonine alone (nonsilencing control)): approximately 60% | HSC-4 cell survival rate ([7]; xCT knockdown (xCT siRNA) in the presence of 50 μM dyclonine): 10-20% | cell survival ([8]; 50 μM dyclonine alone, no sulfasalazine added, control (DMSO) = 100%): 80%

O=C(O)c1cc(/N=N/c2ccc(S(=O)(=O)Nc3ccccn3)cc2)ccc1O [sulfasalazine]
intracellular HNE levels and frequency [1]: increased intracellular HNE levels were observed at a low frequency | intracellular HNE level and frequency [6]: an increase in intracellular HNE level was observed at a low frequency | intracellular GSH levels [2]: reduced | effect on cell survival rate [3]: little effect | effect on cell survival ([8]; sulfasalazine alone, 50-400 μM): almost no effect

oxyfedrine
intracellular HNE levels and frequency [1]: increased intracellular HNE levels were observed at a low frequency | tumor weight gain ([9]; 4 Gy X-irradiation): tended to be suppressed | tumor weight gain ([9]; 6 Gy X-irradiation): significantly suppressed | tumor weight gain ([9]; 10 Gy X-irradiation): significantly suppressed | tumor weight gain ([9]; without X-irradiation): tended to be suppressed | intracellular GSH levels [2]: did not reduce the intracellular GSH levels | cytotoxic effect ([3]; 50 μM oxyfedrine alone, without sulfasalazine): no significant cytotoxic effect | cell survival rate [10]: significantly and markedly reduced | intracellular HNE-accumulating cells [11]: high levels of intracellular HNE-accumulating cells were observed at a high frequency

siRNA against the Nrf2 gene: siRNA against the Nrf2 gene, SEQ ID NO. 9 and 10 (chain 1 UCCUACUGUGAUGUGAAAUTT; chain 2 AUUUCACAUCACAGUAGGAGC; sugars from the 5' end r19 d2, backbone not given here)
expressions of xCT and ALDH3A1 [12]: suppressed | cell survival rate [5]: effectively reduced
